In patent US20230256092A1, “COMBINED USE OF ANTI-CCR8 ANTIBODY AND CHEMOTHERAPEUTIC AGENT” (Shionogi & Co., Ltd., priority 2020, published 2023):

Columns and labels:
Type in all cases: in vivo, mouse
[1] = tested on: breast cancer-derived 4T1 cells; assay: Example 1: Balb/c mice inoculated with 4T1 cells, carboplatin combination; details: antibody 50 μg iv days 5, 8; carboplatin 114 mg/kg iv day 5; single groups 8, 12, 15, 18, 22 days after inoculation, combined from 8 days; Mann-Whitney U
Procedure: (§1) The back of each Balb/c mouse (6 weeks old, female) was intracutaneously inoculated with 2×10^5 breast cancer-derived 4T1 cells (50 μL).
(§2) To an anti-mouse CCR8 antibody single administration group, 50 μg (200 μL) of an anti-mouse CCR8 antibody (clone SA214G2, BioLegend, Inc.) was intravenously administered 5 and 8 days after tumor inoculation, and saline was intravenously administered at a volume of 11.4 mL/kg body weight 5 days after tumor inoculation (N=10). To a carboplatin single administration group, 50 μg (200 μL) of an isotype control antibody (clone LTF-2, Bio X Cell, Inc.) was intravenously administered 5 and 8 days after tumor inoculation, and carboplatin (trade name: PARAPLATIN, Bristol-Myers Squibb Company) at 114 mg/kg body weight was intravenously administered at a volume of 11.4 mL/kg body weight 5 days after tumor inoculation (N=10). […] Tumor volumes were measured every 3 to 4 days from 5 days after tumor inoculation. The tumor volume (mm^3) was measured in long diameter (mm)×short diameter (mm)×short diameter (mm)/2, and a significant difference test based on a Mann-Whitney U method (significance level: P<0.05) was conducted.

[2] = tested on: bladder cancer-derived MB49 cells; assay: Example 4: C57BL/6 mice inoculated with MB49 cells, carboplatin or cisplatin combination; details: antibody 50 μg iv days 4, 7; carboplatin 40 mg/kg or cisplatin 3 mg/kg iv day 4; single groups 7, 10, 14, 17, 18 days; carboplatin combination from 10 days, cisplatin combination from 14 days; Mann-Whitney U
Procedure: The back of each C57BL/6 mouse (6 weeks old, male) was intracutaneously inoculated with 2×10^5 bladder cancer-derived MB49 cells (50 μL).
To an anti-mouse CCR8 antibody single administration group, 50 μg (200 μL) of an anti-mouse CCR8 antibody (clone SA214G2, BioLegend, Inc.) was intravenously administered 4 and 7 days after tumor inoculation, and saline was intravenously administered at a volume of 10 mL/kg body weight 4 days after tumor inoculation (N=10).
To a carboplatin single administration group, 50 μg (200 uL) of an isotype control antibody (clone LTF-2, Bio X Cell, Inc.) was intravenously administered 4 and 7 days after tumor inoculation, and carboplatin (trade name: PARAPLATIN, Bristol-Myers Squibb Company) at 40 mg/kg body weight was intravenously administered at a volume of 10 mL/kg body weight 4 days after tumor inoculation (N=10). […]
Tumor volumes were measured every 1 to 4 days from 4 days after tumor inoculation. The tumor volume (mm^3) was measured in long diameter (mm)×short diameter (mm)×short diameter (mm)/2, and a significant difference test based on a Mann-Whitney U method (significance level: P<0.05) was conducted. […]

[3] = tested on: breast cancer-derived 4T1 cells; assay: Example 2: Balb/c mice inoculated with 4T1 cells, gemcitabine combination; details: antibody 50 μg iv days 5, 8; gemcitabine 50 mg/kg iv day 5; gemcitabine single 8, 12, 15, 18, 22 days, combined from 8 days; Mann-Whitney U
Procedure: as §1
as §2, with “10” for “11.4”, “gemcitabine” for “carboplatin”, “GEMZAR, Eli Lilly Inc.)” for “PARAPLATIN, Bristol-Myers Squibb Company)”, “50” for “114”

[4] = tested on: lung cancer-derived ASB-XIV cells; assay: Example 8: hCCR8-KI (KI/KI) mice inoculated with ASB-XIV cells, paclitaxel combination
Procedure: To an anti-human CCR8 antibody single administration group, an anti-human CCR8 antibody (humanized 10A11 antibody (light chain variable region: IGKV4-1 N53Q+G29R (SEQ ID NO: 59)/heavy chain variable region: IGHV3-15 T94R (SEQ ID NO: 41))) at 0.5 mg/10 mL/kg body weight and saline at 10 mL/kg body weight were intravenously administered 5 days after tumor inoculation (N=10). To a paclitaxel single administration group, saline at 10 mL/kg body weight and paclitaxel (trade name: TAXOL, Bristol-Myers Squibb Company) at 8 mg/10 mL/kg body weight were intravenously administered 5 days after tumor inoculation (N=10). To an anti-human CCR8 antibody and paclitaxel combined administration group, an anti-human CCR8 antibody at 0.5 mg/10 mL/kg body weight and paclitaxel at 8 mg/10 mL/kg body weight were intravenously administered 5 days after tumor inoculation (N=10). To a control group, saline was intravenously administered at 20 mL/kg 5 days after tumor inoculation (N=10). Tumor volumes were measured every 2 to 5 days from 5 days after tumor inoculation. The tumor volume (mm^3) was measured in long diameter (mm)×short diameter (mm)×short diameter (mm)/2, and a significant difference test based on a Student's T: one-sided test method (significance level: P<0.05) was conducted.

[5] = tested on: breast cancer-derived 4T1 cells; assay: Example 3: hCCR8-KI (KI/KI) mice inoculated with 4T1 cells, cisplatin combination; details: antibody 400 μg iv days 5, 8; cisplatin 8 mg/kg iv day 5; cisplatin single 8, 11, 13, 15, 18, 21, 25, 29 days, combined from 8 days; Mann-Whitney U
Procedure: To an anti-human CCR8 antibody single administration group, 400 μg (200 μL) of an anti-human CCR8 antibody (humanized 10A11 antibody (light chain variable region: IGKV4-1 N53Q+G29R (SEQ ID NO: 59)/heavy chain variable region: IGHV3-15 T94R (SEQ ID NO: 41))) was intravenously administered 5 and 8 days after tumor inoculation, and saline was intravenously administered at a volume of 16 mL/kg body weight 5 days after tumor inoculation (N=10). To a cisplatin single administration group, 200 μL of a control solution (obtained by diluting a buffer solution used for the antibody with saline in line with an antibody dilution ratio) was intravenously administered 5 and 8 days after tumor inoculation, and cisplatin (trade name: RANDA, Nippon Kayaku Co., Ltd.) at 8 mg/kg body weight was intravenously administered at a volume of 16 mL/kg body weight 5 days after tumor inoculation (N=10). […] Tumor volumes were measured every 2 to 4 days from 5 days after tumor inoculation. The tumor volume (mm^3) was measured in long diameter (mm)×short diameter (mm)×short diameter (mm)/2, and a significant difference test based on a Mann-Whitney U method (significance level: P<0.05) was conducted.

[6] = tested on: lung cancer-derived ASB-XIV cells; assay: Example 7: hCCR8-KI (KI/KI) mice inoculated with ASB-XIV cells, cisplatin combination; details: antibody 1 mg/kg iv and cisplatin 3 mg/kg iv day 5; 14, 17 and 19 days after tumor inoculation; Mann-Whitney U
Procedure: To an anti-human CCR8 antibody single administration group, an anti-human CCR8 antibody (humanized 10A11 antibody (light chain variable region: IGKV4-1 N53Q+G29R (SEQ ID NO: 59)/heavy chain variable region: IGHV3-15 T94R (SEQ ID NO: 41))) at 1 mg/10 mL/kg body weight and saline at 10 mL/kg body weight were intravenously administered 5 days after tumor inoculation (N=10). To a cisplatin single administration group, a control solution at 10 mL/kg body weight and cisplatin (trade name: RANDA, Nippon Kayaku Co., Ltd.) at 3 mg/10 mL/kg body weight were intravenously administered 5 days after tumor inoculation (N=10). To an anti-human CCR8 antibody and cisplatin combined administration group, an anti-human CCR8 antibody at 1 mg/10 mL/kg body weight and cisplatin at 3 mg/10 mL/kg body weight were intravenously administered 5 days after tumor inoculation (N=10). To a control group, a control solution at 10 mL/kg body weight and saline at 10 mL/kg body weight were intravenously administered 5 days after tumor inoculation (N=10). Tumor volumes were measured every 2 to 5 days from 5 days after tumor inoculation. The tumor volume (mm^3) was measured in long diameter (mm)×short diameter (mm)×short diameter (mm)/2, and a significant difference test based on a Mann-Whitney U method (significance level: P<0.05) was conducted.

N.N.O=C([O-])C1(C(=O)[O-])CCC1.[Pt+2] [carboplatin]
tumor volume as compared to the control group [1]: no significant difference | tumor volume as compared to the control group [2]: no significant difference

Nc1ccn([C@@H]2O[C@H](CO)[C@@H](O)C2(F)F)c(=O)n1 [gemcitabine]
tumor volume as compared to the control group [3]: significant decrease

CC(=O)O[C@H]1C(=O)[C@@]2(C)[C@H]([C@H](OC(=O)c3ccccc3)[C@]3(O)C[C@H](OC(=O)[C@H](O)[C@@H](NC(=O)c4ccccc4)c4ccccc4)C(C)=C1C3(C)C)[C@]1(OC(C)=O)CO[C@@H]1C[C@@H]2O [paclitaxel]
tumor volume as compared to the control group ([4]; antibody 0.5 mg/kg iv and paclitaxel 8 mg/kg iv day 5, antibody single 10, 12, 14, 18 days, paclitaxel single 10 and 12 days, combined from 10 days, Student's T one-sided): significant decrease | tumor volume as compared to the control group, later time points ([4]; paclitaxel 8 mg/kg iv day 5, 14 and 17 days after tumor inoculation): the significant difference disappeared

N.N.[Cl][Pt][Cl] [cisplatin, reference compound]
tumor volume as compared to the control group [5]: significant decrease | tumor volume as compared to the control group [2]: no significant difference | tumor volume as compared to the control group [6]: no significant decrease
